Measured values published in paper PMC3229521, “Engineering Genetically Encoded Nanosensors for Real-Time In Vivo Measurements of Citrate Concentrations” (PLoS ONE, 2011).
Where a name gives a salt, the structure may show the parent alone.

How the values were obtained:
Assay in all cases: Citrate titration of purified FRET nanosensors in a fluorescence plate reader (excitation 433 nm, Venus/CFP emission ratio 530/488 nm) in 20 mM MOPS, 20 mM NaCl, pH 7, fitted to a single site binding curve.
Conditions in all cases: n = 2
[1] = biological target: T1, CIT96μ (Klebsiella pneumoniae, UniProt P52687, K120A)
T1 construct: gene citA; CitA residues 6-130 inserted between CFP and Venus (pGW1, pRSET-based), His-tag purified
T1 sequence (P52687 49-173 K120A): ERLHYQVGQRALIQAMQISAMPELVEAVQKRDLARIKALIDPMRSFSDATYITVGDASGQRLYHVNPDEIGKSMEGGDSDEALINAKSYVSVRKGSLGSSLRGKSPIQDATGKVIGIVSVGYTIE
Experimental: (§1) Next, we thoroughly tested the newly created nanosensor CFP-CitA6-130-Venus in vitro. We determined the binding properties by mixing the sensor with 0.5 to 1000 µM citrate. The obtained ratios were fitted to a single site binding curve as described in the methods section. We determined the KD, the ligand concentration at half-maximal saturation, to be 8 µM, which is very close to the value determined by Gerharz et al (2003) using isothermal titration calorimetry to characterize the purified protein [25]. The reproducibility between different batches of proteins extraction was excellent, with ratios in general not differing by more than 5%. A crucial feature for in vivo application is specificity. We thus exposed the nanosensor to a variety of structurally related organic acids including isocitrate, aconitate, α-ketoglutarate, succinate and pyruvate in presence or absence of citrate. […] In the case of isocitrate, we observed an effect only at concentrations above 1 mM (Figure 2 B) in absence of citrate, which by far exceeds the concentration typically observed by metabolomics in microbes. Also, the apparent affinity for citrate was not modified in the presence of isocitrate or aconitate (data not shown), which excludes competitive binding. After confirming the high specificity of the sensor we tested pH stability, which is crucial when aiming to study certain intracellular compartments (Figure S2 A). […] Therefore, the new nanosensor should be functional in most compartments, however it is not suitable for highly acidic compartments such as endosomes or vacuoles. We also tested the effect of high salt concentrations as typically observed in cells. […] Thus, as has been previously observed when comparing nanosensors in vitro and in vivo [13], [23], we can expect the observed fluorescence intensity ratio in vivo to be lower than under assay conditions. The KD and the dynamic range, however, were not altered, and thus relative changes in citrate concentrations can still be monitored in vivo.
(§2) The natural receptor CitA is highly sensitive and detects low concentrations of citrate in the periplasmic environment and thus has a very high affinity for its substrate. For application as an intracellular sensor a saturation concentration of approximately 100 µM appeared too low given the estimates of intracellular concentrations of citrate by metabolomics approaches in the mid micromolar to low millimolar range [3]. We therefore engineered the affinity of the nanosensor for in vivo applications. Gerharz et al systematically investigated residues of the CitA sensor domain involved in citrate binding. Replacement of positively charged amino acids with alanine led to decreased affinity. We chose five of the reported point mutations and introduced them into the sensor CitA6-130. We determined binding constants and total FRET ratios from two independent extractions (Table 1). The binding constants were qualitatively in good agreement with the observations of Gerharz et al., though in some cases we observed a much larger decrease of affinity. This might be due to the different measurement techniques, a different behaviour of the truncated and sandwiched protein compared to the isolated full-length protein, or to the minor differences we found in the sequence compared to the published Klebsiella CitA gene (sequence of the final sensor can be found in Document S1). […] Decreasing the affinity for the designated substrate bears the risk of also reducing specificity. We therefore tested all mutated sensors for binding of isocitrate and aconitate, the most closely related compounds. […] Also, pH and salt sensitivity were similar to the original sensor (data not shown).
(§3) All in vitro assays were performed in a TECAN Infinite 200 plate reader (TECAN, Austria) in 96 well format (modified from). Proteins, reagents and ligands were dissolved in assay buffer (20 mM Mops, 20 mM NaCl, pH 7 unless specified otherwise). […]

[2] = biological target: T2, CIT32μ (Klebsiella pneumoniae, UniProt P52687, K135A)
T2 construct: gene citA; CitA residues 6-130 inserted between CFP and Venus (pGW1, pRSET-based), His-tag purified
T2 sequence (P52687 49-173 K135A): T1 sequence (P52687 49-173 K120A)
Experimental: as §1, §2, §3

[3] = biological target: T3, CIT50μ (Klebsiella pneumoniae, UniProt P52687, R92A)
T3 construct: gene citA; CitA residues 6-130 inserted between CFP and Venus (pGW1, pRSET-based), His-tag purified
T3 sequence (P52687 49-173 R92A): T1 sequence (P52687 49-173 K120A)
Experimental: as §1, §2, §3

[4] = biological target: T4, CIT8μ (CFP-CitA6-130-Venus) (Klebsiella pneumoniae, UniProt P52687)
T4 construct: gene citA; CitA residues 6-130 inserted between CFP and Venus (pGW1, pRSET-based), His-tag purified
T4 sequence (P52687 50-174): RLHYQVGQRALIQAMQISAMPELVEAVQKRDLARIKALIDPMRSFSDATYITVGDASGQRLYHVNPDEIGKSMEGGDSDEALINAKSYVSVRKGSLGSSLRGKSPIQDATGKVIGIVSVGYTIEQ
Experimental: as §1, §2, §3

[5] = biological target: T5, CIT1.8m (Klebsiella pneumoniae, UniProt P52687, R150A)
T5 construct: gene citA; CitA residues 6-130 inserted between CFP and Venus (pGW1, pRSET-based), His-tag purified
T5 sequence (P52687 49-173 R150A): T1 sequence (P52687 49-173 K120A)
Experimental: as §1, §2, §3

[6] = biological target: T6, CIT0.5m (Klebsiella pneumoniae, UniProt P52687, K120A/R92A)
T6 construct: gene citA; CitA residues 6-130 inserted between CFP and Venus (pGW1, pRSET-based), His-tag purified
T6 sequence (P52687 49-173 R92A/K120A): T1 sequence (P52687 49-173 K120A)
Experimental: as §1, §2, §3

## O=C(O)CC(O)(CC(=O)O)C(=O)O [citrate, citrate (citric acid)]
[1]
  Kd: 96 µM
[2]
  Kd: 32 µM
[3]
  Kd: 50 µM
[4]
  Kd: 8 µM
[5]
  Kd: 1760 µM
[6]
  Kd: 470 µM
